Results: patent US20250170266A1 (ZYMEWORKS BC INC., priority 2022, published 2025)
Read-outs that look alike come from different tables or passages of the source.

How the values were obtained:
Type in all cases: cell-based
[1] = system: Human peripheral blood mononuclear cells (PBMCs); assay: Human PBMC Assay, cytokine release (HTRF); conditions: PBMC, 24 hours
Outline: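 Cryopreserved human PBMCs, rested overnight with 10 ng/ml hIL3, then 300,000 cells/well treated 24 h at 37° C with compound (4-fold, 11-point titration from 15 μM) in RPMI+10% FBS. Supernatant hIL6, hTNFα and hIFNα measured by HTRF; growth medium as negative control.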

mTLR7 = biological target: T1, mTLR7 (Mus musculus, UniProt P58681); assay: Reporter Gene Assay (RGA), HEK-Blue mTLR7 reporter cells, SEAP readout; conditions: overnight incubation, SEAP absorbance 620 nm
T1 construct: host or cells: HEK-Blue mTLR7 reporter cells (HEK293-derived, own knowledge)
T1 sequence (P58681 27-1050): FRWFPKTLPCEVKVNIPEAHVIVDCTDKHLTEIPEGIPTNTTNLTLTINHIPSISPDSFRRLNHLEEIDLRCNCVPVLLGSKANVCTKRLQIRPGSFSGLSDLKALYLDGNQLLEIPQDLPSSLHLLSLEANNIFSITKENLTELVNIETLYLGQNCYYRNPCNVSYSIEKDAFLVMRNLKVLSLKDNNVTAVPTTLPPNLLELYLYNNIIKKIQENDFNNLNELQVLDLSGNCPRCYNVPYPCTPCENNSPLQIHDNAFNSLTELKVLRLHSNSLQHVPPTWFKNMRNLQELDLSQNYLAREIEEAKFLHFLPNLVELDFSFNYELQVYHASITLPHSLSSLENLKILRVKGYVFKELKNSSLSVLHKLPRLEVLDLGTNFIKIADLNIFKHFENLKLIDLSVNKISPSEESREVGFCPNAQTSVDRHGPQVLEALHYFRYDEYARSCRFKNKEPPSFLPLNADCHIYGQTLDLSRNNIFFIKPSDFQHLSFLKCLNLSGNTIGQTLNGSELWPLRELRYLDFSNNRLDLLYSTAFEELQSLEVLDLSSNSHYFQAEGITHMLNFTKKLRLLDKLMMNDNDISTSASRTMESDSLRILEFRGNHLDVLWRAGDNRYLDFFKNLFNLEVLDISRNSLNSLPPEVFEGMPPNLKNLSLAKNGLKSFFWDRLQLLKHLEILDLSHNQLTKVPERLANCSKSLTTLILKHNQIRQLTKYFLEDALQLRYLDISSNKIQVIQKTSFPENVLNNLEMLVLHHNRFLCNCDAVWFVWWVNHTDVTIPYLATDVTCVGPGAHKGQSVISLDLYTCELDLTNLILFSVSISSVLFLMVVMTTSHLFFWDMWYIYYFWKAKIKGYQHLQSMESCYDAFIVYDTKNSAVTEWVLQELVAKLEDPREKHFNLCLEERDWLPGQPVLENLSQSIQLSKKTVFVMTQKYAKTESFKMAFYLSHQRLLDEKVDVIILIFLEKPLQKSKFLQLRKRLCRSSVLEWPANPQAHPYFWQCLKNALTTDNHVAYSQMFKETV
Outline: (§1)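 HEK-Blue reporter cells expressing human or mouse TLR7 (1.5×10^4 cells) were treated with an 11-point, 4-fold compound titration from 15 pM in HEK-Blue Detection medium. Incubation was overnight at 37° C with 5% CO2. Secreted embryonic alkaline phosphatase was read as absorbance at 620 nm.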

Mouse splenocytes = assay: Mouse Splenocyte Assay, cytokine release (HTRF); conditions: 24 hours, mIL6 in supernatant; for EC50: Splenocyte, read-out: Splenocyte IL6 EC50
Method: Mouse splenocytes were isolated from fresh mouse spleens. Briefly, spleens were harvested from female balb/c nude mice and transferred to a 70 μm cell strainer. The cell strainer was subsequently placed in a 6-well suspension culture plate containing 5 mL media (RPMI+10% FBS). The spleens were crushed against the cell strainer using the flat end of a 10 mL syringe plunger and the cell strainer was washed with 5 mL media. The cell strainer was discarded, and the cell suspension was washed in PBS. Red blood cells were removed using PharmaLyse (BD). The cell suspension was washed in media, resuspended in CryoStor® CS10 ([…]) and frozen. On assay day, mouse splenocytes were thawed in warm assay buffer (RPMI+10% FBS). Cells were spun down and resuspended in fresh assay buffer. 100,000 cells were added to each well of plates containing test compound. For test compound preparation, each compound was initially diluted to 1 mM in DMSO and further diluted in assay buffer. A 4-fold 11-point titration starting from 15 μM was performed. Cells were incubated with test compound at 37° C.+5% CO2 for 24 hours before supernatant was harvested. Murine IL6 (mIL6) and murine TNFα (mTNFα) were quantified in the supernatant using homogeneous time resolved fluorescence (Cisbio).
Each assay included a positive control compound (referred to herein as “benchmark,” see, e.g., TABLE 3 below, and taken from International Patent Publication No. WO2017/072662, structure shown below) and a negative control (growth medium). […] The structure of the benchmark compound from International Patent Publication No. WO 2017/072662 is as follows: […]

hTLR7 = biological target: T2, hTLR7 (Homo sapiens, UniProt Q9NYK1); assay: Reporter Gene Assay (RGA), HEK-Blue hTLR7 reporter cells, SEAP readout; conditions: overnight incubation, SEAP absorbance 620 nm
T2 construct: host or cells: HEK-Blue hTLR7 reporter cells (HEK293-derived, own knowledge)
T2 sequence (Q9NYK1 27-1049): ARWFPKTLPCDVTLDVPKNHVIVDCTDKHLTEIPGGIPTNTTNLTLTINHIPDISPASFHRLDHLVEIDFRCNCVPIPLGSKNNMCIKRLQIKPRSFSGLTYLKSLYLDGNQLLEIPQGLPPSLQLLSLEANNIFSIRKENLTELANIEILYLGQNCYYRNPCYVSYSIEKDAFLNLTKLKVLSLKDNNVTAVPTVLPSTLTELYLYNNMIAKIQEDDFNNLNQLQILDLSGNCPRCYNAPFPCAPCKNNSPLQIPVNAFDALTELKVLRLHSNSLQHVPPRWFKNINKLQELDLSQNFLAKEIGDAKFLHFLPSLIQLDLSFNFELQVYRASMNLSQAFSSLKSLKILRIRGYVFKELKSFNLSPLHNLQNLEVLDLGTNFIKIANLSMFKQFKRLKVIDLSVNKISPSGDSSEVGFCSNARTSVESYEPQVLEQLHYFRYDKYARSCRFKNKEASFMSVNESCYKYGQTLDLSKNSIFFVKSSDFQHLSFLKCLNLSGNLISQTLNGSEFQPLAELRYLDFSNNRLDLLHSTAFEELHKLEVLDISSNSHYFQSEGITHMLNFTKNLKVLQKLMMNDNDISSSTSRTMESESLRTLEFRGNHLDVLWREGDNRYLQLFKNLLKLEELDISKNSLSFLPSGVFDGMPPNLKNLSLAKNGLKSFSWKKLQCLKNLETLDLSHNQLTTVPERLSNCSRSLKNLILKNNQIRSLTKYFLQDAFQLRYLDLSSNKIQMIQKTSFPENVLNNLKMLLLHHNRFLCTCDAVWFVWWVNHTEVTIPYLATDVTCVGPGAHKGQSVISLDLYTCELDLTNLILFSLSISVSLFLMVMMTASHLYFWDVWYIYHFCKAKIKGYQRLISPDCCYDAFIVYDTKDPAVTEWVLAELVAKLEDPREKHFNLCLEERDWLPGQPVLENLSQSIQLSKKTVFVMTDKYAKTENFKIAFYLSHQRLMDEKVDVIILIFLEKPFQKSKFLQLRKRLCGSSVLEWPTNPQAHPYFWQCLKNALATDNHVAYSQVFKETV
Outline: as §1

[2] = hIFNα in supernatant, EC50 values approximated and divided into groups, read-out: PBMC IFNa EC50
[3] = hIL6 in supernatant, read-out: PBMC IL6 EC50

| EC50 (mTLR7) [nM] | EC50 (Mouse splenocytes) [nM] | EC50 (hTLR7) [nM] | Splenocyte IL6 EC50 (nM) (Mouse splenocytes) | SMILES | EC50 [1, 2] [nM] | EC50 [1, 3] [nM] |
| --- | --- | --- | --- | --- | --- | --- |
| 1960 | ≥ 1000 | 259 |  | CCOc1nc(N)c2nc(O)n(Cc3ccc(CN[C@@H](CO)C(=O)O)cc3OC)c2n1 [Compound 119, (4-((6-amino-2-ethoxy-8-hydroxy-9H-purin-9-yl)methyl)-3-methoxybenzyl)-L-serine] | > 10 | 3910 |
| 637 | 881 | 33.2 |  | CCOc1nc(N)c2nc(O)n(Cc3ccc(CN(CC(=O)O)CC(=O)O)cc3OC)c2n1 [Compound 120, 2,2′-((4-((6-amino-2-ethoxy-8-hydroxy-9H-purin-9-yl)methyl)-3-methoxy-benzyl)azanediyl) diacetic Acid] | > 10 | 524 |
| 772 | ≥ 1000 | 343 |  | CCOc1nc(N)c2nc(O)n(Cc3ccc(CN[C@H](C(=O)O)[C@@H](C)CC)cc3OC)c2n1 [Compound 121, (4-((6-amino-2-ethoxy-8-hydroxy-9H-purin-9-yl)methyl)-3-methoxybenzyl)-L-isoleucine] | > 10 | 13300 |
| 10.2 | 66.1 | 9 |  | CCOc1nc(N)c2nc(O)n(Cc3ccc(CN[C@H](CO)[C@@H](C)CC)cc3OC)c2n1 [Compound 122, 6-amino-2-ethoxy-9-(4-((((2S,3S)-1-hydroxy-3-methylpentan-2-yl)amino)-methyl)-2-methoxybenzyl)-9H-purin-8-ol] | 0.1 to 1 | 279 |
| 146 | 145 | 30.7 |  | CCOc1nc(N)c2nc(O)n(Cc3ccc(CN)cc3OC)c2n1 [Compound 123, 6-amino-9-(4-(aminomethyl)-2-methoxybenzyl)-2-ethoxy-9H-purin-8-ol] | 1 to 10 | 684 |
| 33.5 | 744 | 5.4 |  | CCNCc1ccc(Cn2c(O)nc3c(N)nc(OCC)nc32)c(OC)c1 [Compound 124, 6-amino-2-ethoxy-9-(4-((ethylamino)methyl)-2-methoxybenzyl)-9H-purin-8-ol] | 0.1 to 1 | 674 |
| 4.3 | 171 | 0.5 |  | CCCN(CCC)Cc1ccc(Cn2c(O)nc3c(N)nc(OCC)nc32)c(OC)c1 [Compound 125, 6-amino-9-(4-((dipropylamino)methyl)-2-methoxybenzyl)-2-ethoxy-9H-purin-8-ol] | 1 to 10 | 2230 |
| 443 |  | 18.2 | inactive | CCOc1nc(N)c2nc(O)n(Cc3ccc(CN4C[C@@H]5C[C@H]4CN5)cc3OC)c2n1 [Compound 128, 9-(4-(((1S,4S)-2,5-diazabicyclo[2.2.1]heptan-2-yl)methyl)-2-methoxybenzyl)-6-amino-2-ethoxy-9H-purin-8-ol] | 1 to 10 | 167 |
| 65.1 | 234 | 5.8 |  | CCOc1nc(N)c2nc(O)n(Cc3ccc(CN4CCC(CN)CC4)cc3OC)c2n1 [Compound 132, 6-amino-9-(4-((4-(aminomethyl)piperidin-1-yl)methyl)-2-methoxybenzyl)-2-ethoxy-9H-purin-8-ol] | > 10 | 116 |
| 157 | 137 | 13.3 |  | CCOc1nc(N)c2nc(O)n(Cc3ccc(CNCCN4CCOCC4)cc3OC)c2n1 [Compound 135, 6-amino-2-ethoxy-9-(2-methoxy-4-(((2-morpholinoethyl)amino)methyl)benzyl)-9H-purin-8-ol] | 0.1 to 1 | 42.3 |
| 210 | 230 | 22.2 |  | CCOc1nc(N)c2nc(O)n(Cc3ccc(CNCCN4CCSCC4)cc3OC)c2n1 [Compound 137, 6-amino-2-ethoxy-9-(2-methoxy-4-(((2-thiomorpholinoethyl)amino)methyl)-benzyl)-9H-purin-8-ol] | 0.1 to 1 | 39.4 |
| 243 | 186 | 17.2 |  | CCOc1nc(N)c2nc(O)n(Cc3ccc(CN4CCC(C5CCNCC5)CC4)cc3OC)c2n1 [Compound 138, 9-(4-([4,4′-bipiperidin]-1-ylmethyl)-2-methoxybenzyl)-6-amino-2-ethoxy-9H-purin-8-ol] | > 10 | 130 |
| 96.5 | 170 | 6.5 |  | CCOc1nc(N)c2nc(O)n(Cc3ccc(CN4CCC5(CCNCC5)CC4)cc3OC)c2n1 [Compound 139, 9-(4-((3,9-diazaspiro[5.5]undecan-3-yl)methyl)-2-methoxybenzyl)-6-amino-2-ethoxy-9H-purin-8-ol] | > 10 | 115 |
| 34.8 | 180 | 6.8 |  | CCOc1nc(N)c2nc(O)n(Cc3ccc(CN4CCC(CCN)CC4)cc3OC)c2n1 [Compound 140, 6-amino-9-(4-((4-(2-aminoethyl)piperidin-1-yl)methyl)-2-methoxybenzyl)-2-ethoxy-9H-purin-8-ol] | > 10 | 53.6 |
